Assay results published in the supplement of paper PMC10307832.

Assays:
Assay in all cases: relative viability (nuclei count vs DMSO), 5 days (fraction); higher = more cells survive
[1] = compound: COCC[n+]1c2c(n(Cc3cnccn3)c1C)C(=O)c1ccccc1C2=O [YM155] + Nc1ncn([C@H]2C[C@H](O)[C@@H](CO)O2)c(=O)n1 [Decitabine] (partner 2 µM)
Method in brief: (§1)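 Lung cancer cell lines were seeded in 1536-well plates and dosed by pin tool the next day, with either a single drug or a fixed anchor-drug dose combined with five library-drug doses (not always all listed) spaced in √10 steps. Five days later, one step fixed the cells and stained their nuclei (final 0.05% Triton X-100, 1% formaldehyde, 1 ug/ml Hoechst), and nuclei were counted on 4× images. Relative viability is the nuclei count in treated wells divided by the count in vehicle wells, and each value is the median of duplicate plates.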

[2] = compound: CC(C)(C)c1cc(NC(=O)Nc2ccc(-c3cn4c(n3)sc3cc(OCCN5CCOCC5)ccc34)cc2)no1 [Quizartinib] + CC(=O)Nc1cccc(-n2c(=O)n(C3CC3)c(=O)c3c(Nc4ccc(I)cc4F)n(C)c(=O)c(C)c32)c1 [Trametinib] (partner 0.02 µM)
Method in brief: as §1

[3] = compound: COCC[n+]1c2c(n(Cc3cnccn3)c1C)C(=O)c1ccccc1C2=O [YM155] + CC(=O)Nc1cccc(-n2c(=O)n(C3CC3)c(=O)c3c(Nc4ccc(I)cc4F)n(C)c(=O)c(C)c32)c1 [Trametinib] (partner 0.02 µM)
Method in brief: as §1

[4] = compound: CC(C)(C)c1cc(NC(=O)Nc2ccc(-c3cn4c(n3)sc3cc(OCCN5CCOCC5)ccc34)cc2)no1 [Quizartinib] + CC(=O)c1c(C)c2cnc(Nc3ccc(N4CCNCC4)cn3)nc2n(C2CCCC2)c1=O [Palbociclib] (partner 0.5 µM)
Method in brief: as §1

[5] = compound: CC(C)(C)c1cc(NC(=O)Nc2ccc(-c3cn4c(n3)sc3cc(OCCN5CCOCC5)ccc34)cc2)no1 [Quizartinib] + NC(=O)Nc1cc(-c2cccc(F)c2)sc1C(=O)N[C@H]1CCCNC1 [AZD7762] (partner 0.2 µM)
Method in brief: as §1

[6] = compound: CC(C)(C)c1cc(NC(=O)Nc2ccc(-c3cn4c(n3)sc3cc(OCCN5CCOCC5)ccc34)cc2)no1 [Quizartinib] + COc1cccc2cc(-c3nc([C@H]4CC[C@H](C(=O)O)CC4)n4ncnc(N)c34)[nH]c12 [OSI-027] (partner 0.5 µM)
Method in brief: as §1

Which results are given for NCI-H1648?
relative viability ([1]; first compound 0.006325 µM): 0.593; relative viability ([1]; first compound 0.02 µM): 0.41; relative viability ([1]; first compound 0.06325 µM): 0.599; relative viability ([2]; first compound 0.003162 µM): 0.401; relative viability ([2]; first compound 0.03162 µM): 0.581; relative viability ([2]; first compound 0.1 µM): 0.486; relative viability ([3]; first compound 0.006325 µM): 0.902; relative viability ([3]; first compound 0.02 µM): 0.444; relative viability ([3]; first compound 0.06325 µM): 0.651; relative viability ([4]; first compound 0.003162 µM): 0.118; relative viability ([4]; first compound 0.03162 µM): 0.277; relative viability ([4]; first compound 0.1 µM): 0.239; relative viability ([5]; first compound 0.003162 µM): 0.612; relative viability ([5]; first compound 0.03162 µM): 0.629; relative viability ([5]; first compound 0.1 µM): 0.821; relative viability ([6]; first compound 0.01 µM): 0.258; relative viability ([6]; first compound 0.03162 µM): 0.253; relative viability ([6]; first compound 0.1 µM): 0.259
